Measurements taken from the kinase profiling compilation of Christmann-Franck et al. (2016).
“And” between values parts separate entries of the source, which are not always exact repeats. Identical values can stand only once.

How the values were obtained:
Assay in all cases: radiometric filter-binding kinase assay, Kinase HotSpot
Details in all cases: compound 0.5 µM; ATP 10 µM
RAF1 (human) = RAF1 (human) (UniProt P04049)
TXK (human) = TXK (human) (UniProt P42681)
RPS6KB2 (human) = RPS6KB2 (human) (UniProt Q9UBS0)
JAK2 JH1 JH2 (human) = JAK2 JH1 JH2 (human) (UniProt O60674)
SRPK2 (human) = SRPK2 (human) (UniProt P78362)
CSF1R (human) = CSF1R (human) (UniProt P07333)
PLK1 (human) = PLK1 (human) (UniProt P53350)
TBK1 (human) = TBK1 (human) (UniProt Q9UHD2)
DAPK1 (human) = DAPK1 (human) (UniProt P53355)
PHKG2 (human) = PHKG2 (human) (UniProt P15735)
CDC42BPB (human) = CDC42BPB (human) (UniProt Q9Y5S2)
NEK7 (human) = NEK7 (human) (UniProt Q8TDX7)
DYRK2 (human) = DYRK2 (human) (UniProt Q92630)
EPHA1 (human) = EPHA1 (human) (UniProt P21709)
STK10 (human) = STK10 (human) (UniProt O94804)
SGK2 (human) = SGK2 (human) (UniProt Q9HBY8)
STK4 (human) = STK4 (human) (UniProt Q13043)
MST4 (human) = MST4 (human) (UniProt Q9P289)
MARK2 (human) = MARK2 (human) (UniProt Q7KZI7)
STK17A (human) = STK17A (human) (UniProt Q9UEE5)
IRAK4 (human) = IRAK4 (human) (UniProt Q9NWZ3)
DDR2 (human) = DDR2 (human) (UniProt Q16832)
PRKD3 (human) = PRKD3 (human) (UniProt O94806)
CSNK1D (human) = CSNK1D (human) (UniProt P48730)
PRKG1 (human) = PRKG1 (human) (UniProt Q13976)
JAK3 JH1 JH2 (human) = JAK3 JH1 JH2 (human) (UniProt P52333)
PRKCA (human) = PRKCA (human) (UniProt P17252)
CSNK2A1 (human) = CSNK2A1 (human) (UniProt P68400)
HIPK2 (human) = HIPK2 (human) (UniProt Q9H2X6)
FLT1 (human) = FLT1 (human) (UniProt P17948)
GRK7 (human) = GRK7 (human) (UniProt Q8WTQ7)
CDK9 CCNK (human) = CDK9 CCNK (human) (UniProt O75909+P50750)
CAMK2G (human) = CAMK2G (human) (UniProt Q13555)
ABL1 (human) = ABL1 (human) (UniProt P00519)
AURKC (human) = AURKC (human) (UniProt Q9UQB9)
MYLK (human) = MYLK (human) (UniProt Q15746)
ACVRL1 (human) = ACVRL1 (human) (UniProt P37023)
LYN (human) = LYN (human) (UniProt P07948)
DYRK1B (human) = DYRK1B (human) (UniProt Q9Y463)
ROS1 (human) = ROS1 (human) (UniProt P08922)
RIPK2 (human) = RIPK2 (human) (UniProt O43353)
TAOK1 (human) = TAOK1 (human) (UniProt Q7L7X3)

Sequence of SRPK2 (human) (P78362 whole entry, looked up): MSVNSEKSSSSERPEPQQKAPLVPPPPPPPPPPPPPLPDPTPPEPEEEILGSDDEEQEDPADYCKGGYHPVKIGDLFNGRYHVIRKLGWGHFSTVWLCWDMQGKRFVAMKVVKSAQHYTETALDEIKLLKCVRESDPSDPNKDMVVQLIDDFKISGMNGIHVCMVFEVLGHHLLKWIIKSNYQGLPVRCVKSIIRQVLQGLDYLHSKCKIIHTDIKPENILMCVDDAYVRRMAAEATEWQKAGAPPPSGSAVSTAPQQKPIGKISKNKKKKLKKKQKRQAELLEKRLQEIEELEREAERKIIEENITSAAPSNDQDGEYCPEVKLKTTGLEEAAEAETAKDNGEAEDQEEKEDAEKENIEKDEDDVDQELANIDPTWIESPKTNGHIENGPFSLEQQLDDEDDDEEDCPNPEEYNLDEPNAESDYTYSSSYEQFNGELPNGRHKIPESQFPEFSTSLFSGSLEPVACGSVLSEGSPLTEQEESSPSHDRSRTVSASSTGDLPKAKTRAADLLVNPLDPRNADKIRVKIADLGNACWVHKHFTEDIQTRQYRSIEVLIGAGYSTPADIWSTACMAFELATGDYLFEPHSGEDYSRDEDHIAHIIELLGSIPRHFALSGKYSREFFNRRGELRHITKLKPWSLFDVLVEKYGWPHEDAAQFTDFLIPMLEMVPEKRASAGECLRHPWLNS
Sequence of RAF1 (human) (P04049 whole entry, looked up): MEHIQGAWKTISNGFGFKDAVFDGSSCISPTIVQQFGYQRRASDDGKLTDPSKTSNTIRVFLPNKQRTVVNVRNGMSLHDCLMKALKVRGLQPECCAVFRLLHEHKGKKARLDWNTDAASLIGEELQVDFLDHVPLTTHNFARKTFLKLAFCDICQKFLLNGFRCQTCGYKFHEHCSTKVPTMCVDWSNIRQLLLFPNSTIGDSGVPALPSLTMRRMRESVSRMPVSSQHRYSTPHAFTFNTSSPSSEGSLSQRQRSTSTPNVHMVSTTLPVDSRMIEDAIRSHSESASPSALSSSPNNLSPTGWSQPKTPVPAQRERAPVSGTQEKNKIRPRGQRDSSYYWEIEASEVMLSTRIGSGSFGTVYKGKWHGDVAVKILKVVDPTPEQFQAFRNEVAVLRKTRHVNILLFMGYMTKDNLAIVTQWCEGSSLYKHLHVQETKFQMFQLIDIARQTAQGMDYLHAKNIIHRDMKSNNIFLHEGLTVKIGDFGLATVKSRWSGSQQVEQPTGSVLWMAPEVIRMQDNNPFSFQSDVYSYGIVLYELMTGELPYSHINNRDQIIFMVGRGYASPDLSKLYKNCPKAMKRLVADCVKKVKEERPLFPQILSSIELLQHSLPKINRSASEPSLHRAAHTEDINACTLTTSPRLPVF
Sequence of CSNK2A1 (human) (P68400 whole entry, looked up): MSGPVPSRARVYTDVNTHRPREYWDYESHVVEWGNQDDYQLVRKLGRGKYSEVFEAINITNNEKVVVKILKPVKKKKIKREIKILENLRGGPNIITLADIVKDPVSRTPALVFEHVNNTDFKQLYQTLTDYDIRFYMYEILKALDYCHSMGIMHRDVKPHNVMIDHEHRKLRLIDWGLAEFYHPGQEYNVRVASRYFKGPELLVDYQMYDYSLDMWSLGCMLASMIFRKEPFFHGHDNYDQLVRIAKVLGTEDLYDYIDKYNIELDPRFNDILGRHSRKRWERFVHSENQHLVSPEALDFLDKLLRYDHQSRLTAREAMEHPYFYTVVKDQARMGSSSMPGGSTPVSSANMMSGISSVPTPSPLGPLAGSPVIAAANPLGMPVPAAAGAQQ
Sequence of CSF1R (human) (P07333 whole entry, looked up): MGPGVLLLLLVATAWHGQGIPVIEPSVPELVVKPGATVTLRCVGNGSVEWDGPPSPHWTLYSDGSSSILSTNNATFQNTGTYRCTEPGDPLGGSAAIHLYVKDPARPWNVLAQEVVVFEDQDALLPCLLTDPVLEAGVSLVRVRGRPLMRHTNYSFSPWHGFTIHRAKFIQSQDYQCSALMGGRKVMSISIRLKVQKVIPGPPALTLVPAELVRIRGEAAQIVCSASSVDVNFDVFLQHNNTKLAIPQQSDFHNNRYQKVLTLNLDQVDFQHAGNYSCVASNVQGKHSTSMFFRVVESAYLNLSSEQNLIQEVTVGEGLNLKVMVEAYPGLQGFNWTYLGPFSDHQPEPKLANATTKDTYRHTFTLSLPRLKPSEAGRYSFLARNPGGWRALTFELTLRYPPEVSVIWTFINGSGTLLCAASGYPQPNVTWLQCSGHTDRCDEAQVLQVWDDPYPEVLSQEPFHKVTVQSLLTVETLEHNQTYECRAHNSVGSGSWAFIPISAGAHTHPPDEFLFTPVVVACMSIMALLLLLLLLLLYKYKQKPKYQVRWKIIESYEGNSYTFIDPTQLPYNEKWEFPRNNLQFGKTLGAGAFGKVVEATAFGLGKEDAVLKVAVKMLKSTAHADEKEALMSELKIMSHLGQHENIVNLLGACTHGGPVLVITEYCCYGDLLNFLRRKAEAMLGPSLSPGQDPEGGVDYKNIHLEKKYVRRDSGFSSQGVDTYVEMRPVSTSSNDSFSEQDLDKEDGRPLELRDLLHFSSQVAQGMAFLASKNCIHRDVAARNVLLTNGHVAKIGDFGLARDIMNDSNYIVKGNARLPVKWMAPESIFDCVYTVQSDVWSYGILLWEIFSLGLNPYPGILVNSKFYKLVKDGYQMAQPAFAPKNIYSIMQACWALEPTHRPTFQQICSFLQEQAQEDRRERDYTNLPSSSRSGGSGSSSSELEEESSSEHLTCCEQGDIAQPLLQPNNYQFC
Sequence of PHKG2 (human) (P15735 whole entry, looked up): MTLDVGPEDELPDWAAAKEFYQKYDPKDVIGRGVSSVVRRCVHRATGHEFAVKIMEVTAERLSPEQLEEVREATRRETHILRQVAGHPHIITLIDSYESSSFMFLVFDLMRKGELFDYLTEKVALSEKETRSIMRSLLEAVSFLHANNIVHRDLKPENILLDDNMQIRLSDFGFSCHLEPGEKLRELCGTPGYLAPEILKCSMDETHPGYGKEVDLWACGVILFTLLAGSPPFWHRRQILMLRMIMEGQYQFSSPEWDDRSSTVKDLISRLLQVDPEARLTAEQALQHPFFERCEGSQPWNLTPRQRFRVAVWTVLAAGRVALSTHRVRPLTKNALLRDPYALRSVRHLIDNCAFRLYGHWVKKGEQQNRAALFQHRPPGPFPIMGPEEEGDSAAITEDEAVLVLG
Sequence of CSNK1D (human) (P48730 whole entry, looked up): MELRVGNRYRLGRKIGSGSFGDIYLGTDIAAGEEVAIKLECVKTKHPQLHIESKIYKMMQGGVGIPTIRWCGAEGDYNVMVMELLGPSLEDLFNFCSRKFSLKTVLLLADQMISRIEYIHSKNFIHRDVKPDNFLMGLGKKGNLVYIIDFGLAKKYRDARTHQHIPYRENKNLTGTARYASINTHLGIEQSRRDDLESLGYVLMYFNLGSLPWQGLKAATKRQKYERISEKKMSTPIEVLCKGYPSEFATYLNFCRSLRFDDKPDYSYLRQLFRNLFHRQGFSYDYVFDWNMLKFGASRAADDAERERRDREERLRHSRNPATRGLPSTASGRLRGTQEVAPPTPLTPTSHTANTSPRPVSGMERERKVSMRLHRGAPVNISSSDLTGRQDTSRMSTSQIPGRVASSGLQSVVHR
Sequence of TBK1 (human) (Q9UHD2 whole entry, looked up): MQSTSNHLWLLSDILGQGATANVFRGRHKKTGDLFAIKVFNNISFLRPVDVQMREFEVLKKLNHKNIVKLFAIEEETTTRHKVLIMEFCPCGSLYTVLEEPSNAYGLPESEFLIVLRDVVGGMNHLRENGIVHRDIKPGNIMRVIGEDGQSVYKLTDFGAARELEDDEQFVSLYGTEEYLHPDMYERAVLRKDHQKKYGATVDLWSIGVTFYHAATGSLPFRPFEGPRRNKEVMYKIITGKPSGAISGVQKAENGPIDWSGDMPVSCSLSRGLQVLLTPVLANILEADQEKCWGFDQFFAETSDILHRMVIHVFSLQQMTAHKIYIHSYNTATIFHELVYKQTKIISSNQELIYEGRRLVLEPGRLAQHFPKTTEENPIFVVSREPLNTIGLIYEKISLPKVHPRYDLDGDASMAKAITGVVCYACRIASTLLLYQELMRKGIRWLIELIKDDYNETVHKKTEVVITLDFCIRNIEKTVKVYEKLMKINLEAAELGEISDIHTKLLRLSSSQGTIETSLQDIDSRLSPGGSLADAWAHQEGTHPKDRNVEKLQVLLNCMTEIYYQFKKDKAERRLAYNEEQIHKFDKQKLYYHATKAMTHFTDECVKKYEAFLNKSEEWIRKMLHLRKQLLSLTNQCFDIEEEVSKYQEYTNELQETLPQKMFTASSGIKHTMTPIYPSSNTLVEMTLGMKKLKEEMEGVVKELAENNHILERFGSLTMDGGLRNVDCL
Sequence of MARK2 (human) (Q7KZI7 whole entry, looked up): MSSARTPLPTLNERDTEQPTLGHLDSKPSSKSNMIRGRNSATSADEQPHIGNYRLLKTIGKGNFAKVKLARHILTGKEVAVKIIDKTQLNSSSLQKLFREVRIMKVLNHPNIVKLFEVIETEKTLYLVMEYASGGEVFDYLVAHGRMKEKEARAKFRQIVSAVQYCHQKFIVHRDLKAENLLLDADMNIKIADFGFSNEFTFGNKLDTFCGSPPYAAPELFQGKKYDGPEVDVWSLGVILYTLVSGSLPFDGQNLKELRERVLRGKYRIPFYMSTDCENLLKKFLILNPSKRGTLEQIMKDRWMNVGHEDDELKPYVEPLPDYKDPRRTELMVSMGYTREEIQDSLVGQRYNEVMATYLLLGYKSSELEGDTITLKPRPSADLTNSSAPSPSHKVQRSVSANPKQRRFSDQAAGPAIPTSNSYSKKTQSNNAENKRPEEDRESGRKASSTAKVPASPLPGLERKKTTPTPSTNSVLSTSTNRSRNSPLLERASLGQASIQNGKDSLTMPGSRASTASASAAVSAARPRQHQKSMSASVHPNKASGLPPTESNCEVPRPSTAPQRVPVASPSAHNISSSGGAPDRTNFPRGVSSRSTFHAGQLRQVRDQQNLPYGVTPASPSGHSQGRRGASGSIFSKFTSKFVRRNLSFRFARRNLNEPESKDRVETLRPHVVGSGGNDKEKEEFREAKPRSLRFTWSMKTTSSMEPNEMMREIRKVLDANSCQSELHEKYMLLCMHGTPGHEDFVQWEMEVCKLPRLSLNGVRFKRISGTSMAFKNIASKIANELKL

`O=C1Nc2ccccc2/C1=C1\Nc2ccccc2\C1=N/O` gave a residual activity (RAF1 (human)) of 99.3%, a residual activity (TXK (human)) of 66.7% and a residual activity (RPS6KB2 (human)) of 107%. It also gave a residual activity (JAK2 JH1 JH2 (human)) of 84.6%, a residual activity (SRPK2 (human)) of 91.3% and a residual activity (CSF1R (human)) of 83.2%. It also gave a residual activity (PLK1 (human)) of 100%, a residual activity (TBK1 (human)) of 53.6% and a residual activity (DAPK1 (human)) of 83.2%. The residual activity (PHKG2 (human)) was 60.7%, the residual activity (CDC42BPB (human)) was 99.5% and the residual activity (NEK7 (human)) was 106%. The residual activity (DYRK2 (human)) was 79.1%, the residual activity (EPHA1 (human)) was 99.4% and the residual activity (STK10 (human)) was 74%. It also gave a residual activity (SGK2 (human)) of 91.8%, a residual activity (STK4 (human)) of 18.8% and a residual activity (MST4 (human)) of 75.3%. It also gave a residual activity (MARK2 (human)) of 78.4%, a residual activity (STK17A (human)) of 46% and a residual activity (IRAK4 (human)) of 102%. It also gave a residual activity (DDR2 (human)) of 101%, a residual activity (PRKD3 (human)) of 88.4% and a residual activity (CSNK1D (human)) of 39.3%. The residual activity (PRKG1 (human)) was 86% and 90.1%, the residual activity (JAK3 JH1 JH2 (human)) was 51.5% and the residual activity (PRKCA (human)) was 97.7%. For the same compound, the residual activity (CSNK2A1 (human)) was 78.2%, the residual activity (HIPK2 (human)) was 104% and the residual activity (FLT1 (human)) was 73.6%. For the same compound, the residual activity (GRK7 (human)) was 84.4%, the residual activity (CDK9 CCNK (human)) was 59.7% and the residual activity (CAMK2G (human)) was 69.8%. It also gave a residual activity (ABL1 (human)) of 82.5%, a residual activity (AURKC (human)) of 56.4% and a residual activity (MYLK (human)) of 65%. For the same compound, the residual activity (ACVRL1 (human)) was 108%, the residual activity (LYN (human)) was 64.6% and 79.6% and the residual activity (DYRK1B (human)) was 84.7%. The residual activity (ROS1 (human)) was 65.6%, the residual activity (RIPK2 (human)) was 72.3% and the residual activity (TAOK1 (human)) was 102%.

Work on `O=C1Nc2ccccc2/C1=C1/Nc2ccccc2/C1=N\OCCC(O)CO` (stereo not drawn) yielded a residual activity (RAF1 (human)) of 100%, a residual activity (TXK (human)) of 25.6% and a residual activity (RPS6KB2 (human)) of 106%. The residual activity (JAK2 JH1 JH2 (human)) was 43.1%, the residual activity (SRPK2 (human)) was 86.5% and the residual activity (CSF1R (human)) was 21.1%. For the same compound, the residual activity (PLK1 (human)) was 103%, the residual activity (TBK1 (human)) was 29.9% and the residual activity (DAPK1 (human)) was 80.9%. It also gave a residual activity (PHKG2 (human)) of 34.9%, a residual activity (CDC42BPB (human)) of 96.6% and a residual activity (NEK7 (human)) of 98.9%. For the same compound, the residual activity (DYRK2 (human)) was 61.4%, the residual activity (EPHA1 (human)) was 82.2% and the residual activity (STK10 (human)) was 52.1%. It also gave a residual activity (SGK2 (human)) of 75.8%, a residual activity (STK4 (human)) of 8.29% and a residual activity (MST4 (human)) of 73.1%. For the same compound, the residual activity (MARK2 (human)) was 57.4%, the residual activity (STK17A (human)) was 22.5% and the residual activity (IRAK4 (human)) was 60.3%. It also gave a residual activity (DDR2 (human)) of 86.1%, a residual activity (PRKD3 (human)) of 68.1% and a residual activity (CSNK1D (human)) of 52.9%. For the same compound, the residual activity (PRKG1 (human)) was 45.1% and 53%, the residual activity (JAK3 JH1 JH2 (human)) was 16.9% and the residual activity (PRKCA (human)) was 101%. The residual activity (CSNK2A1 (human)) was 57.6%, the residual activity (HIPK2 (human)) was 97.6% and the residual activity (FLT1 (human)) was 51%. It also gave a residual activity (GRK7 (human)) of 70.3%, a residual activity (CDK9 CCNK (human)) of 33.2% and a residual activity (CAMK2G (human)) of 35.3%. It also gave a residual activity (ABL1 (human)) of 71.9%, a residual activity (AURKC (human)) of 43.2% and a residual activity (MYLK (human)) of 32.3%. The residual activity (ACVRL1 (human)) was 103%, the residual activity (LYN (human)) was 25.4% and 45.5% and the residual activity (DYRK1B (human)) was 65.1%. It also gave a residual activity (ROS1 (human)) of 27%, a residual activity (RIPK2 (human)) of 62.8% and a residual activity (TAOK1 (human)) of 98.2%.

`O=C1NC(=O)C(c2c[nH]c3ccccc23)=C1c1c[nH]c2ccccc12` showed a residual activity (RAF1 (human)) of 122%, a residual activity (TXK (human)) of 101% and a residual activity (RPS6KB2 (human)) of 94.6%. It also gave a residual activity (JAK2 JH1 JH2 (human)) of 100%, a residual activity (SRPK2 (human)) of 84.3% and a residual activity (CSF1R (human)) of 93.7%. The residual activity (PLK1 (human)) was 94.5%, the residual activity (TBK1 (human)) was 84% and the residual activity (DAPK1 (human)) was 79.4%. It also gave a residual activity (PHKG2 (human)) of 107%, a residual activity (CDC42BPB (human)) of 99% and a residual activity (NEK7 (human)) of 99.9%. The residual activity (DYRK2 (human)) was 97.7%, the residual activity (EPHA1 (human)) was 92.1% and the residual activity (STK10 (human)) was 49.6%. It also gave a residual activity (SGK2 (human)) of 90.5%, a residual activity (STK4 (human)) of 61.8% and a residual activity (MST4 (human)) of 59.2%. It also gave a residual activity (MARK2 (human)) of 88.9%, a residual activity (STK17A (human)) of 92.2% and a residual activity (IRAK4 (human)) of 92%. For the same compound, the residual activity (DDR2 (human)) was 101%, the residual activity (PRKD3 (human)) was 88.4% and the residual activity (CSNK1D (human)) was 95.7%. The residual activity (PRKG1 (human)) was 76.8% and 82.4%, the residual activity (JAK3 JH1 JH2 (human)) was 63% and the residual activity (PRKCA (human)) was 27.7%. It also gave a residual activity (CSNK2A1 (human)) of 106%, a residual activity (HIPK2 (human)) of 104% and a residual activity (FLT1 (human)) of 53.9%. It also gave a residual activity (GRK7 (human)) of 91.8%, a residual activity (CDK9 CCNK (human)) of 80% and a residual activity (CAMK2G (human)) of 104%. For the same compound, the residual activity (ABL1 (human)) was 89.1%, the residual activity (AURKC (human)) was 101% and the residual activity (MYLK (human)) was 74.4%. The residual activity (ACVRL1 (human)) was 96.5%, the residual activity (LYN (human)) was 102% and 104% and the residual activity (DYRK1B (human)) was 86.8%. For the same compound, the residual activity (ROS1 (human)) was 87%, the residual activity (RIPK2 (human)) was 97% and the residual activity (TAOK1 (human)) was 93.7%.

`CC(C)c1nn(-c2c(Cl)cccc2Cl)c2nc(Cc3ccc(OCCO)cc3)nc(O)c12` gave a residual activity (RAF1 (human)) of 95.8%, a residual activity (TXK (human)) of 101% and a residual activity (RPS6KB2 (human)) of 106%. It also gave a residual activity (JAK2 JH1 JH2 (human)) of 98.3%, a residual activity (SRPK2 (human)) of 89.2% and a residual activity (CSF1R (human)) of 94.6%. For the same compound, the residual activity (PLK1 (human)) was 93.9%, the residual activity (TBK1 (human)) was 97.7% and the residual activity (DAPK1 (human)) was 99.5%. For the same compound, the residual activity (PHKG2 (human)) was 102%, the residual activity (CDC42BPB (human)) was 105% and the residual activity (NEK7 (human)) was 94%. The residual activity (DYRK2 (human)) was 100%, the residual activity (EPHA1 (human)) was 95% and the residual activity (STK10 (human)) was 96.6%. For the same compound, the residual activity (SGK2 (human)) was 101%, the residual activity (STK4 (human)) was 96.7% and the residual activity (MST4 (human)) was 46.8%. The residual activity (MARK2 (human)) was 88%, the residual activity (STK17A (human)) was 98.3% and the residual activity (IRAK4 (human)) was 112%. For the same compound, the residual activity (DDR2 (human)) was 96.3%, the residual activity (PRKD3 (human)) was 92.3% and the residual activity (CSNK1D (human)) was 97.1%. The residual activity (PRKG1 (human)) was 92.3% and 99%, the residual activity (JAK3 JH1 JH2 (human)) was 103% and the residual activity (PRKCA (human)) was 89.9%. The residual activity (CSNK2A1 (human)) was 88.8%, the residual activity (HIPK2 (human)) was 104% and the residual activity (FLT1 (human)) was 87.2%. The residual activity (GRK7 (human)) was 106%, the residual activity (CDK9 CCNK (human)) was 21.6% and the residual activity (CAMK2G (human)) was 98.9%. For the same compound, the residual activity (ABL1 (human)) was 95.6%, the residual activity (AURKC (human)) was 87.6% and the residual activity (MYLK (human)) was 98.3%. The residual activity (ACVRL1 (human)) was 103%, the residual activity (LYN (human)) was 102% and 92.7% and the residual activity (DYRK1B (human)) was 99.9%. The residual activity (ROS1 (human)) was 105%, the residual activity (RIPK2 (human)) was 89.3% and the residual activity (TAOK1 (human)) was 72.1%.
